Results published in US11000535B2, “Anticancer composition and use thereof” (KAOHSIUNG MEDICAL UNIVERSITY, priority 2015, dated 2021).
Converted amounts (≈) assume the structure as drawn.

Experiments:
[1] = test system: Mahlavu cells; assay: alamarBlue cell viability, Mahlavu; assay type: cell-based, human
Source text: (§1) Next, we analyzed the effect of PGG on cell proliferation in different liver cancer cell lines, including Huh7, Hep3B (ATCC-No 8064), HepG2 (ATCC HB-8065), SK-HEP-1 (ATCC HTB-52), Mahlavu and HepG2 (ATCC HB-8065).
(§2) Please refer to FIG. 18, which illustrates the effect of PGG on cell proliferation in different liver cancer cell lines, wherein the numeral 1 denotes Huh7 cells, the numeral 2 denotes Hep3B cells, the numeral 3 denotes SK-HEP-1 cells, the numeral 4 denotes Mahlavu cells, and the numeral 5 denotes HepG2 cells. And cell viability was determined by the alamarBlue® viability assay. IC50 values of PGG in each cell line are shown as follows: Huh7 cells 0.03 mg/mL, Hep3B cells 0.07 mg/mL, SK-HEP-1 cells, Mahlavu cells and HepG2 0.10 mg/mL dose-dependent.
(§3) Human liver cancer cell lines Huh7, Hep G2, Hep 3B, SK-HEP-1, Mahlavu and embryonic kidney cell line HEK-293T all were cultured in Dulbecco's Modified Eagle's Medium (DMEM) (Gibco BRL, Grand Island, N.Y., USA) with 10% heat-inactivated fetal bovine serum (HyClone, Logan, Utah, USA), penicillin (100 U/mL), streptomycin ([…]), nonessential amino acids (0.1 mM/L) and L-glutamine (2 mM/L) in a humidified incubator with 5% CO2.

[2] = test system: Huh7 cells; assay: Colony formation assay; assay type: cell-based, human; details: 7 days
Method: For the colony assay, Huh7 cells were seeded. […] Numbers of surviving colonies were analyzed.

[3] = test system: c-Myc protein; assay: c-Myc protein expression by immunoblotting, PC-3; assay type: cell-based, human; details: PC-3 cells, 0.1 mg/mL
Method: (§4) Human prostate cancer cell line PC-3 and human promyelocytic leukemia cell line HL-60 were cultured in Gibco BRL company RPMI (Roswell Park Memorial Institute) 1640's medium.
(§5) Cells or xenograft tumors were harvested with RIPA lysis buffer (50 mM Tris (pH 7.5), 150 mM NaCl, 1% Triton X-100, 0.1% sodium dodecyl sulfate (SDS), 0.5% sodium deoxycholate, supplemented with protease and phosphatase inhibitors (1 mM Phenylmethanesulfonyl Fluoride (PMSF), […], […] Tosyllysine Chloromethyl Ketone (TLCK), […] Tosyl phenylalanyl chloromethyl ketone (TPCK), […] aprotinin, 1 mM sodium fluoride (NaF), 5 mM sodium pyrophosphate (NaPPi) and 10 mM sodium orthovanadate (Na3VO4).
(§6) Protein lysates were quantified and separated on SDS-PAGE gel, and immunoblotting was carried out.

[4] = test system: Huh7 cells (shLacZ, shGNMT, shMyc, c-Myc overexpression); assay: PGG cytotoxicity in Huh7 cells with GNMT or c-Myc knock-out or c-Myc overexpression; assay type: cell-based, human
Method: As to the mechanism for how to suppress the growth of liver cancer cells by PGG, it was deduced that by virtue of induced GNMT expression by PGG it could interfere liver cancer cells. And it can be expected to have the claimed therapeutic effect of PGG by knocking out GNMT. With transformed Huh7 cells, shRNAs which have stable expressions of GNMT are evaluated.
Please refer to FIG. 40, which illustrates PGG affects the viability in different cell lines, wherein the numeral 1 denotes shLacZ, the numeral 2 denotes shGNMT-1, and the numeral 3 denotes shGNMT-2.
Please refer to FIG. 41, which illustrates the viability in Huh7 cells, wherein the numeral 1 denotes vehicle, the numeral 2 denotes c-Myc, the numeral 3 denotes solvent, and the numeral 4 denotes PGG.
Please refer to FIG. 44, which illustrates the viability in Huh7 cells, wherein the numeral 1 denotes shLacZ, and the numeral 2 denotes shMyc.
Stablized cells comprises Huh7-GFP, Huh7-GNMT, Huh7-shGNMT, Huh7-shLacZ and Huh7-shMyc, which are established via the lentivirus system and cultured in Dulbecco's Modified Eagle's Medium (DMEM) (Gibco BRL, Grand Island, N.Y., USA) with 1 μg/ml puromycin.

[5] = test system: c-Myc protein; assay: c-Myc protein expression by immunoblotting, HL60; assay type: cell-based, human; details: HL60 cells, 0.1 mg/mL
Method: as §4, §5, §6

[6] = test system: c-Myc; assay: c-Myc expression in xenograft tumors; assay type: in vivo, mice; details: FIG. 34 c-Myc/actin (PGG); FIG. 35 mRNA (F3-6 25 and 300 mpk)
Method: Please refer to FIGS. 34-35. FIG. 34 illustrates c-Myc/actin expression ratio in the tumor after treatments, wherein the numeral 1 is for the solvent, and the numeral 2 is for PGG. FIG. 35 illustrates c-Myc in RNA expression in the tumor after treatments, wherein the numeral 1 is for the solvent, the numeral 2 is for F3-6 (25 mpk), and the numeral 3 is for F3-6 (300 mpk).
RNA was prepared by using Tri Reagent (Sigma-Aldrich, St Louis, Mo., USA) and was reverse transcribed into cDNA using a Super Script II Reverse Transcriptase Kit (Invitrogen Inc., Carlsbad, Calif., USA).
PCR was performed on an ABI StepOne Plus System (Applied Biosystems, Foster City, Calif., USA) using the LightCycler® First Start DNA Master SYBR Green I reagent (Roche Diagnostics, Basel, Switzerland). The mRNA level was normalized using the TATA-box binding protein (TBP) mRNA level as the standard.
The following primers were used: GNMT forward, 5′-ACTGGATGACT CTGGACAA-3′ (SEQ ID NO. 3) and reverse, 5′-ACTGAGGATGTGGTCGT-3′(SEQ ID NO. 4); TBP forward, 5′-[…]-3′ (SEQ ID NO. 5) and reverse, 5′-[…]-3′(SEQ ID NO. 6); c-Myc forward, […](SEQ ID NO. 7) and reverse, […](SEQ ID NO. 8). […]

[7] = test system: c-Myc protein; assay: c-Myc protein expression by immunoblotting, Huh7; assay type: cell-based, human; details: Huh7 cells
Method: (§7) Please refer to FIG. 32A, FIG. 32B, FIG. 33A and FIG. 33B.
as §5, §6

[8] = test system: c-Myc protein; assay: c-Myc protein expression by immunoblotting, HepG2; assay type: cell-based, human; details: HepG2 cells
Method: as §7, §5, §6

[9] = test system: HepG2 cells; assay: alamarBlue cell viability, HepG2; assay type: cell-based, human
Source text: as §1, §2, §3

[10] = test system: Huh7 cells; assay: Antitumor effect of PGG, Huh7 xenograft; assay type: in vivo, nude mice; details: 300 mpk, once a day for 10 days
Method: To test the antitumor effect of PGG in vivo, Huh7 cells were implanted subcutaneously into nude mice.
By the same token, mice were subcutaneously injected with Huh7 cells (2×10^6) in order to test the anti-tumor effect of PGG in vivo.
Tumor growth was monitored (every day or three times per week) by using Vernier caliper measurement of the length (L) and width (W) of the tumor.
Tumor volume (TV) was calculated by using the formula volume=(L×W^2)/2.

O=C(OC[C@H]1O[C@@H](OC(=O)c2cc(O)c(O)c(O)c2)[C@H](OC(=O)c2cc(O)c(O)c(O)c2)[C@@H](OC(=O)c2cc(O)c(O)c(O)c2)[C@@H]1OC(=O)c1cc(O)c(O)c(O)c1)c1cc(O)c(O)c(O)c1 [PGG, 1,2,3,4,6-penta-O-galloyl-β-D-glucopyranoside]
IC50 [1]: 0.10 mg/mL (≈ 106 µM) | inhibition of colony formation ([2]; 0.05 mg/ml or higher): 95% | formation of Huh7 cell populations (colonies), dose dependence [2]: dose-dependent manner | c-Myc protein expression [3]: inhibits c-Myc protein expression | cytotoxicity with ectopically overexpressed c-Myc ([4]; 0.1 mg/mL, FIG. 41): there is still cytotoxicity | cytotoxicity when GNMT is knocked out (shGNMT-1, shGNMT-2 vs shLacZ) ([4]; FIG. 40): no obvious improvement for the cytotoxicity caused by PGG | cell viability of Huh7-shMyc cells compared with Huh7-shLacZ cells ([4]; FIG. 44): only slightly decrease cell viability | c-Myc protein expression [5]: inhibits c-Myc protein expression | expression of c-Myc in the tumor xenograft mice [6]: lowers the expression of c-Myc | expression of c-Myc protein, dose dependence [7]: suppresses the expression of c-Myc protein in Huh7 cells in a dose-dependent manner | expression of c-Myc protein, time dependence [7]: suppresses the expression of c-Myc protein in Huh7 cells in a time-dependent manner | expression of c-Myc protein, dose dependence [8]: suppresses the expression of c-Myc protein in HepG2 cells in a dose-dependent manner | expression of c-Myc protein, time dependence [8]: suppresses the expression of c-Myc protein in HepG2 cells in a time-dependent manner | IC50 [9]: 0.10 mg/mL (≈ 106 µM) | tumor growth (tumor volume) vs control group [10]: significant inhibition in tumor growth
